# Results from US4536335A, “Carbapenem antibiotics” (Bristol-Myers Company, priority 1983, dated 1985).
# Key:
# E. coli A20341-1 = experiment: In vitro MIC, tube dilution; type: cell-based; settings: tube dilution, Nutrient Broth, overnight incubation at 37° C.; additional data table
# P. morganii A15153 = experiment: In vitro MIC, tube dilution; type: cell-based; settings: tube dilution, Nutrient Broth, overnight incubation at 37° C.; additional data table
# P. aeruginosa A21213 = experiment: In vitro MIC, tube dilution; type: cell-based; settings: tube dilution, Nutrient Broth, overnight incubation at 37° C.; additional data table
# [1] = Urinary recovery after intramuscular administration to mice; type: in vivo; settings: mouse, urine, im, 20 mg/kg, intramuscular dose of 20 mg/kg, 0-6 hour collection, read-out: Urine Recovery
# Experimental: Compounds were solubilized in 0.1 M phosphate buffer pH 7. Values are from a single test; 4 mice per compound.
# (§1) Also shown is the urinary recovery in the mice.
# ***Recovery based on 0-6 hour collection
# S. faecalis A20688 = experiment: In vitro MIC, tube dilution; type: cell-based; settings: tube dilution, Nutrient Broth, overnight incubation at 37° C.; additional data table
# S. marcescens A20019 = experiment: In vitro MIC, tube dilution; type: cell-based; settings: tube dilution, Nutrient Broth, overnight incubation at 37° C.; additional data table
# E. cloacae A-9659 = experiment: In vitro MIC, tube dilution; type: cell-based; settings: tube dilution, Nutrient Broth, overnight incubation at 37° C.; additional data table
# Description: N-formimidoyl thienamycin was included as a comparison compound.
# S. pneumoniae A-9585 = experiment: In vitro MIC, tube dilution; type: cell-based; settings: Nutrient Broth, overnight incubation at 37° C., additional data table
# P. vulgaris A21559 = experiment: In vitro MIC, tube dilution; type: cell-based; settings: tube dilution, Nutrient Broth, overnight incubation at 37° C.; additional data table
# K. pneumoniae A20468 = experiment: In vitro MIC, tube dilution; type: cell-based; settings: tube dilution, Nutrient Broth, overnight incubation at 37° C.; additional data table
# S. pyogenes A-9604 = experiment: In vitro MIC, tube dilution; type: cell-based; settings: tube dilution, Nutrient Broth, overnight incubation at 37° C.; additional data table
# P. aeruginosa A-9843a [2] = experiment: Protective effect in the intramuscular treatment of infected mice (PD50); type: in vivo; settings: Pseudomonas aeruginosa, A9843A, im, read-out: PD50/treatment, P. aeruginosa A9843A
# Experimental: The PD50 (dose in mg/kg required to give protection to 50% of the infected mice) is indicated.
# Treatment Schedule: Mice were treated i.m. with drugs 0 and 2 hours post-infection; 5 mice per dose were used for each test
# *For compound of Ex. 2, mice were infected i.p. with 2 × 10^9
# compounds of Ex. 4 and 5, mice were infected i.p. with ~9 ×
# were treated i.m. with drugs 0 and 2 h postinfection.
# P. mirabilis A-9900 = experiment: In vitro MIC, tube dilution; type: cell-based; settings: tube dilution, Nutrient Broth, overnight incubation at 37° C.; additional data table
# S. aureus A-9537 = experiment: In vitro MIC, tube dilution; type: cell-based; settings: tube dilution, overnight incubation at 37° C., additional data table
# E. cloacae A-9656 = experiment: In vitro MIC, tube dilution; type: cell-based; settings: tube dilution, Nutrient Broth, overnight incubation at 37° C.; additional data table
# P. aeruginosa A-9843A [3] = experiment: In vitro MIC, tube dilution; type: cell-based; settings: Nutrient Broth, overnight incubation at 37° C., additional data table
# P. rettgeri A22424 = experiment: In vitro MIC, tube dilution; type: cell-based; settings: tube dilution, Nutrient Broth, overnight incubation at 37° C.; additional data table
# K. pneumoniae A-9664 = experiment: In vitro MIC, tube dilution; type: cell-based; settings: tube dilution, Nutrient Broth, overnight incubation at 37° C.; additional data table
# [4] = Half-life in phosphate buffer solution; type: physicochemical
# Experimental: A solution of para-nitrobenzyl 3-[2-(N-methylthiomorpholinium diphenylphosphate)ethylthio]-6α-[1'-(R)-hydroxyethyl]-7-oxo-1-azabicyclo[3.2.0]hept-2-ene-2-carboxylate (1.31 g, 1.76 mmol) in 0.1 M pH 7.4 phosphate buffer (48.8 mL), tetrahydrofuran (20 mL) and diethyl ether (20 mL) was hydrogenated over 10% pd/C (1.5 g) in a Parr shaker for 1 h at 40 psi. The reaction mixture was diluted with diethyl ether (40 mL) and the phases were separated. The organic phase was washed with water (2×5 mL). The aqueous phases were combined, filtered through a #52 hardened filter paper, washed with diethyl ether (2×20 mL) and pumped under vacuum. The aqueous solution was poured on a silica gel reverse phase column and the desired carbapenem was eluted with 5% acetonitrile-water.
# To a solution of p-nitrobenzyl (5R,6S)-3-[2-(1-methylmorpholino)ethylthio]-6-[(R)-1-hydroxyethyl]-7-oxo-1-azabicyclo[3.2.0]hept-2-ene-2-carboxylate diphenylphosphate (0.360 g, 0.49 mmol) in 13 mL of phosphate buffer (0.05 M pH 7.4) was added 0.36 g of 10% palladium-on-charcoal, 20 mL of tetrahydrofuran and 20 mL of diethyl ether. This mixture was hydrogenated (Parr) at 32 psi for 1 h. The mixture was filtered through Celite and the filter pad was washed with H2 O and diethyl ether. The aqueous phase was separated and the pH was adjusted to 7.0 with additional pH 7.4 phosphate buffer. After removing residual organic solvents in vacuo the aqueous solution was applied to a C18 reverse-phase column.
# To a solution of (5R,6S)paranitrobenzyl 3-[2-(1,4-dimethyl-1-piperazinium)ethylthio]-6-[1-(R)-hydroxyethyl]-7-oxo- 1-azabicyclo[3.2.0]hept-2-ene-2-carboxylate diphenylphosphate (0.47 g, 0.623 mmol) in wet tetrahydrofuran (25 mL) was added diethyl ether (25 mL), potassium phosphate monobasic-sodium hydroxide buffer (13 mL, pH 7.22) and 10% palladium on charcoal (0.47 g). The resulting mixture was hydrogenated at 23° C. under 40 psi for 1 h. The two layers were separated and the organic layer was extracted with water (2×7 mL).
# To a cold (-10° C.) solution of (5R,6S)-3-[2 -(N-methyl-thiomorpholinium)ethylthio]-6-[1-(R)-hydroxyethyl]-7-oxo-1-azabicyclo(3.2.0)-hept-2-ene-2-carboxylate (608 mg, 1.65 mmol) in a 1:1 mixture of acetonitrile-water (9 mL) was added m-chloroperbenzoic acid (334.8 mg, 1.65 mmol) in small portion over a 1 hour period. The mixture was then diluted with water (15 mL) and washed with diethyl ether (3×15 mL).
# A mixture of (5R,6S) paranitrobenzyl 3-[2-(1,4,4-trimethyl-1-piperazinium)ethylthio]-6-[1R-hydroxyethyl]-7-oxo- 1-azabicyclo(3.2.0)hept-2-ene-2-carboxylate bischloride (0.40 g, 0.68 mmol), phosphate buffer (30 mL, 0.05M, pH 7.0), tetrahydrofuran (10 mL), ether (30 mL) and 10% palladium on charcoal (0.40 g) was hydrogenated at 23° C. under 35 psi for 1 h. The two phases were separated. The organic phase was extracted with water (10 mL).
# [5] = tested on: S. aureus A-9606 (Pen-res.); experiment: In vitro MIC, tube dilution; type: cell-based; settings: Nutrient Broth, overnight incubation at 37° C., additional data table
# [6] = Blood levels in mice after intramuscular administration; type: in vivo; settings: mouse, blood, im, 20 mg/kg, intramuscular dose of 20 mg/kg
# Description: Compounds were solubilized in 0.1 M phosphate buffer pH 7. Values are fro
# a single test; 4 mice used per compound.
# *t1/2 refers to halflife in minutes
# **AUC refers to the area under the blood concentrationtime curve
# as §1
# Compounds were solubilized in 0.1 M phosphate buffer, pH 7.
# Values based on a single test; 4 mice per compound.
# *T1/2 refers to halflife in minutes
# E. coli A15119 = experiment: In vitro MIC, tube dilution; type: cell-based; settings: tube dilution, Nutrient Broth, overnight incubation at 37° C.; additional data table
smiles,measurement,setting,value
"C[C@@H](O)[C@H]1C(=O)N2C(C(=O)[O-])=C(SCC[N+]3(C)CC[S+]([O-])CC3)C[C@H]12 (single isomer, unassigned) [Ex. 5 comp. A]",MIC E. coli A20341-1,E. coli A20341-1,0.03 µg/mL
same,MIC M. morganii A15153,P. morganii A15153,0.13 µg/mL
same,MIC P. aeruginosa A21213,P. aeruginosa A21213,16 µg/mL
same,dose excreted at 6 h,[1],14 ± 1%
same,MIC S. faecalis A20688,S. faecalis A20688,0.05 µg/mL
same,MIC S. marcescens A20019,S. marcescens A20019,0.06 µg/mL
same,MIC E. cloacae A-9659,E. cloacae A-9659,0.13 µg/mL
same,MIC S. pneumoniae A-9585,S. pneumoniae A-9585,0.004 µg/mL
same,MIC P. vulgaris A21559,P. vulgaris A21559,0.06 µg/mL
same,MIC K. pneumoniae A20468,K. pneumoniae A20468,0.13 µg/mL
same,MIC S. pyogenes A-9604,S. pyogenes A-9604,0.004 µg/mL
same,ED50,P. aeruginosa A-9843a [2],> 12.5 mg/kg
same,MIC P. mirabilis A-9900,P. mirabilis A-9900,0.13 µg/mL
same,MIC S. aureus-50% serum A-9537,S. aureus A-9537; 50% serum,0.03 µg/mL
same,MIC S. aureus A-9537,S. aureus A-9537; Nutrient Broth,0.016 µg/mL
same,MIC E. cloacae A-9656,E. cloacae A-9656,0.13 µg/mL
same,MIC P. aeruginosa A-9843a,P. aeruginosa A-9843A [3],32 µg/mL
same,MIC P. rettgeri A22424,P. rettgeri A22424,0.25 µg/mL
same,MIC K. pneumoniae A-9664,K. pneumoniae A-9664,0.06 µg/mL
same,half-life,"[4]; 0.065 m phosphate buffer, pH 7.4, 0.065 M, pH 7.4 phosphate buffer, 37° C., read-out: T 1/2 (solution stability) (converted)",12 h
same,MIC S. aureus (Pen-res.) A-9606,[5],0.03 µg/mL
same,Cmax,[6],10200 ng/mL
same,AUC,[6]; read-out: Blood AUC,3100 ng·h/mL
same,half-life,[6]; read-out: Blood T1/2,7 min
same,MIC E. coli A15119,E. coli A15119,0.03 µg/mL
"C[C@@H](O)[C@H]1C(=O)N2C(C(=O)O)=C(SCC[N+]3(C)CC[N+](C)(C)CC3)C[C@H]12 [Example 6, (5R,6S)-3-[2-(1,4,4-Trimethyl-1-piperazinium)-ethylthio]-6-(1R-hydroxyethyl]-7-oxo-1-azabicyclo(3.2.0)hept-2-ene-2-carboxylate chloride]",half-life,"[4]; phosphate buffer, pH 7.4, concentration of 10^-4 M in phosphate buffer pH 7.4 at 36.8° C., read-out: t1/2 (solution stability) (converted)",9.8 h
